Source: US20230201313A1, “METHODS OF TREATING LEFT VENTRICLE HYPERTROPHY” (Amgen Inc., priority 2020, published 2023)
“Also recorded” adds a separate entry of the source.

Assays:
FGF23 [1] = details: Hansen et al. 2012; cited from earlier work
PTH [2] = details: Hansen et al. 2012; cited from earlier work
PTH [3] = details: single intravenous dose, patients on hemodialysis; cited from earlier work
1.25(OH)2 vitamin D = details: after a single 10 mg dose; cited from earlier work
[4] = test system: maintenance hemodialysis patients with secondary hyperparathyroidism (SHPT) and LVH; experiment: Single blinded randomized 12-month trial, etelcalcetide vs alfacalcidol: left ventricular mass index (LVMI) by cardiac MRI; format: in vivo, human; details: for estimated adjusted mean difference in the change of LVMI: ANCOVA, 1 year vs baseline, etelcalcetide group compared to alfacalcidol group
Description: For the study, 62 patients were recruited, of which 30 patients were randomized to treatment with alfacalcidol and 32 to treatment with etelcalcetide. During the course of the 12-month study, ten patients dropped out during follow-up. Data for the main outcome (left ventricular mass index, LVMI in g/m^2) was available for the patients at baseline (enrollment) and at the 1-year follow-up, except for three patients as noted in Example 1. FIG. 1A illustrates a flow chart of the study design. Turning now to FIGS. 2A-2B, data from the study is presented. […] Thus, the 10 patients who dropped out during the study are removed from the analysis. FIG. 2A is a boxplot of the unadjusted primary endpoint for the alfacalcidol and the etelcalcetide treatment groups. […] The unadjusted comparison of the primary endpoint by a 2-sample equal variances t-test yields a significant difference in LVMI change between the treatment groups (p=0.007156). Due to the non-normal distribution of the data, a non-parametric 2-sample Wilcoxon test was also performed to confirm the result (p=0.0006661). An analysis adjusted for the stratification of the randomization was conducted using an Analysis of Covariance (ANCOVA) with outcome variable “Change of LVMI” and using the randomization stratification factors (residual kidney function, center of recruitment) as well as the LVMI at baseline as covariates. […] The associated p-value was 0.00809, in accordance with the result of the unadjusted analysis. In another analysis of the data, referred to as in intention-to-treat analysis, all patients who were randomized for the study are included in the data analysis. Thus, for the 10 patients who dropped out during the study all available measurements are used at the time they were taken. Out of those, for the 3 patients without MRI measurements the outcome values are imputed (obtained as mean values from patients of the same medication group with stratification factors identical to the patient with missing data). Final data on the primary study endpoint, difference of LVMI (g/m^2) at 1 year and LVMI at baseline, for the 62 patients who were randomized for the study is shown in FIG. 2B. The unadjusted comparison of the primary endpoint by a 2-sample equal variances t-test yields a significant difference in LVMI change between the treatment groups (p=0.04691). However, due to the distribution of the data the non-parametric Wilcoxon test is deemed more reliable and confirms the results (p=0.006098). […] The associated p-value was 0.031, in accordance with the result of the unadjusted analysis. Study Overview: A single blinded randomized trial of twelve months to test the effects of etelcalcetide compared to alfacalcidol on LVH and cardiac fibrosis in maintenance hemodialysis patients with secondary hyperparathyroidism (SHPT) was conducted. Both treatment regimens were titrated to equally suppress SHPT. Patients treated three times weekly with hemodialysis for between about 3 months and about 3 years and with parathyroid hormone (PTH) levels ≥300 pg/ml and LVH were enrolled. The primary study endpoint was left ventricular mass index (LVMI) determined in g/m^2 at baseline and at 12 months by cardiac MRI (cMRI). […] Due to the strong association of volume overload and LVH, randomization was additionally stratified by residual kidney function and regular body composition monitoring was performed to control patients' volume status. […]

FGF23 [5] = details: at 24 hours after a single 10 mg dose; cited from earlier work
calcium = experiment: Trial secondary endpoint: calcium blood levels; format: in vivo, human; details: 55 individuals, 12-month follow-up, FIGS. 5A-5B, versus alfacalcidol group
Description: In FIGS. 5A-5B, the calcium blood levels for the subjects in each treatment group is shown. On average, 17 measurements were available throughout follow-up for each individual.
(§1) Outcomes measurements: Laboratory analyses: Biochemical data was collected prior to hemodialysis at baseline and periodically (e.g., intact PTH, calcium, phosphate, 25-OH-Vit-D, 1,25-(OH)2-Vit-D every two weeks during the first 10 weeks followed by measurements every 4 weeks; while intact FGF23, s-klotho, proBNP and pre+postdialysis TnT was measured in 8-week-intervals). Additionally, a RAAS fingerprint was conducted before start and at the end of the treatment phase. The RAAS fingerprint is a mass spectrometry-based quantification of angiotensin metabolites. […]
(§2) Intact PTH, calcium and phosphate were analyzed in serum samples using the Cobas assay (Roche, reference range of PTH: 15-65 pg/mL, calcium: 2.15-2.55 mmol/L, phosphate: 0.81-1.45 mmol/L). Vitamin D was measured using serum samples and a chemiluminescent-immunoassays (Diasorin, reference range of 1.25-(OH)2-VitD: 19.9-79.3 pg/mL; 25-OH-Vit-D 75-250 nmol/L). Ionized calcium was measured during every dialysis session (using blood gas analysis (ABL 800 Flex, Drott)). Intact FGF23 was analyzed in plasma samples using chemiluminescent—Immunoassays (DiaSorin, reference range 23.2-95.4 pg/mL). […]

FGF23 [6] = experiment: Trial secondary endpoint: FGF23 blood levels; format: in vivo, human; details: 55 individuals, 12-month follow-up, FIGS. 4A-4B, versus alfacalcidol group
Description: In FIGS. 4A-4B, the data on FGF23 blood levels for the subjects in each treatment group is shown. On average, 8 measurements were available throughout follow-up for each individual.
as §1, §2

C=C1/C(=C\C=C2/CCC[C@]3(C)[C@@H]([C@H](C)CCCC(C)C)CC[C@@H]23)C[C@@H](O)C[C@@H]1O [Alfacalcidol]
increase of FGF23 levels (FGF23 [1]): threefold
decrease of PTH levels (PTH [2]): ≥ 30%

CC(=O)N[C@H](CSSC[C@H](N)C(=O)O)C(=O)N[C@H](C)C(=O)N[C@H](CCCNC(=N)N)C(=O)N[C@H](CCCNC(=N)N)C(=O)N[C@H](CCCNC(=N)N)C(=O)N[C@H](C)C(=O)N[C@H](CCCNC(=N)N)C(N)=O [etelcalcetide, (2R)-3-[[(2S)-2-acetamido-3-[[(2R)-1-[[(2R) [[(2R)-1-[[(2R)-1-[[(2R)-1-[[(2R)-1-amino-5-(diaminomethydeneamino)-1-oxopentanyl]amino]-1-oxopropan-2-yl]amino]-5-(diaminomethydeneamino)-1-oxopentan-2-yl]amino]-5-(diaminomethydeneamino)-1-oxopentan-2-yl]amino]-5-(diaminomethydeneamino)-1-oxopentan-2-yl]amino]-1-oxopropan-2-yl]amino]-3-oxopropyl]disulfanyl]-2-aminopropanoic acid]
duration of lowering of serum levels of PTH (PTH [3]): up to 72 hours
effect on 1.25(OH)2 vitamin D levels (1.25(OH)2 vitamin D): little or no effect
Prevention of LVH progression ([4]; dialysis patients with sHPT, compared to alfacalcidol): 6-8%
LVMI progression ([4]; dialysis patients with sHPT, compared to treatment with alfacalcidol): prevented LVMI progression
estimated adjusted mean difference in the change of LVMI ([4]; intention-to-treat analysis (62 randomized patients), p=0.031): −6.2 (95% confidence interval −11.72 to −0.71) g/m^2
effect on LVH and cardiac fibrosis ([4]; patients under maintenance hemodialysis, through a suppression of FGF23): effectively ameliorates LVH and cardiac fibrosis
estimated adjusted mean difference in the change of LVMI ([4]; per-protocol analysis (52 patients who completed), p=0.00809): −8.2 (95% confidence interval −13.99 to −2.39) g/m^2
decrease of FGF23 levels (FGF23 [5]): over 30%
calcium blood levels, overall measurements and longitudinal behavior (calcium): lower values which were decreasing over time
FGF23 blood levels, overall measurements and longitudinal behavior (FGF23 [6]): lower values which were decreasing over time; also recorded: decreased FGF23 levels
